Assay results reported in patent US12285431B2, “Treatment of Rb-negative tumors using topoisomerase inhibitors in combination with cyclin dependent kinase 4/6 inhibitors” (G1 Therapeutics, Inc., priority 2014, dated 2025).

Columns and labels:
[1] = test system: ZR-75-1 (breast ductal carcinoma, Rb-positive); assay: Cellular proliferation assay (CellTiter-Glo), ZR-75-1; format: cell-based; details: Homo sapiens, ZR-75-1, 144 h, cell viability after six days, read-out: ZR75-1 Cellular EC50
Experimental: (§1) Further cellular proliferation assays were conducted using the following cancer cell lines: MCF7 (breast adenocarcinoma—Rb-positive), ZR-75-1 (breast ductal carcinoma—Rb-positive), H69 (human small cell lung cancer—Rb-negative) cells, or A2058 (human metastatic melanoma cells—Rb-negative). These cells were seeded in Costar (Tewksbury, Massachusetts) 3093 96 well tissue culture treated white walled/clear bottom plates. Cells were treated with the compounds of Table 1 as nine point dose response dilution series from 10 uM to 1 nM. Cells were exposed to compounds and then cell viability was determined after either four (H69) or six (MCF7, ZR75-1, A2058) days as indicated using the CellTiter-Glo® luminescent cell viability assay (CTG; Promega, Madison, Wisconsin, United States of America) following the manufacturer's recommendations. Plates were read on BioTek (Winooski, Vermont) Syngergy2 multi-mode plate reader. The Relative Light Units (RLU) were plotted as a result of variable molar concentration and data was analyzed using Graphpad (LaJolla, California) Prism 5 statistical software to determine the EC50 for each compound.

[2] = test system: H69 (human small cell lung cancer, Rb-negative) cells; assay: Cellular proliferation assay (CellTiter-Glo), H69; format: cell-based; details: NCI-H69, 96 h, cell viability after four days
Experimental: as §1

HS68 cells = assay: G1 arrest (cellular G1 and S-phase) assay, propidium iodide flow cytometry; format: cell-based, human; details: Homo sapiens, Hs68, HS68 cells
Experimental: HS68 cells (human skin fibroblast cell line (Rb-positive)) were stained with propidium iodide staining solution and run on Dako Cyan Flow Cytometer. The fraction of cells in G0-G1 DNA cell cycle versus the fraction in S-phase DNA cell cycle was determined using FlowJo 7.2.2 analysis.
The compounds listed in Table 1 were tested for their ability to arrest HS68 cells at the G1 phase of the cell cycle.

CDK4/CyclinD1 = CDK4/CyclinD1 (Homo sapiens, UniProt P11802); assay: CDK4/cyclinD1 kinase assay (Nanosyn, Caliper microfluidic kinase detection); format: biochemical; details: Table 2; 12-point dose-response, ATP at Km (200 μM), 10 hr; read-out: CDK4/CycD1 IC50
Experimental: The assays were performed using microfluidic kinase detection technology (Caliper Assay Platform). The compounds were tested in 12-point dose-response format in singlicate at Km for ATP. Phosphoacceptor substrate peptide concentration used was 1 μM for all assays and Staurosporine was used as the reference compound for all assays. Specifics of each assay are as described below:
CDK4/CyclinD1: Enzyme concentration: 1 nM; ATP concentration: 200 μM; Incubation time: 10 hr.

[3] = test system: MCF7 (breast adenocarcinoma, Rb-positive); assay: Cellular proliferation assay (CellTiter-Glo), MCF7; format: cell-based; details: Homo sapiens, MCF7, 144 h, cell viability after six days
Experimental: as §1

[4] = test system: A2058 (human metastatic melanoma cells, Rb-negative); assay: Cellular proliferation assay (CellTiter-Glo), A2058; format: cell-based; details: A2058, 144 h, cell viability after six days
Experimental: as §1

[5] = Mouse pharmacokinetics (oral gavage / intravenous); format: in vivo, mice; details: for AUC 0-inf (uM * h) i.v.: 10 mg/kg intravenous injection; for AUC (uM * h) p.o. / Cmax / Tmax (h) p.o. / t1/2 (h) p.o.: 30 mg/kg oral gavage
[6] = test system: small cell lung cancer cell lines; details: Hamilton et al., cited from earlier work; for cytotoxic / chemosensitizing effect in combination with various camptothecin derivatives (in words): Molecules (2014), rubitecan, 9AC, topotecan, SN38, CPT109; for cytotoxic effect in combination with topotecan (in words): Journal of Cancer Therapy (2013)
[7] = test system: NCI-H69 SCLC xenograft (Rb-negative); format: in vivo
Text: An Rb-negative model of small cell lung cancer was used in the following example. Briefly, xenografts of National Cancer Institute (NCI) […] cells were grafted onto the mice (Athymic Nude (Crl:NU(NCr)-Foxn1^nu); 6-12 week old females) using the South Texas Accelerated Research Therapeutics (START) Cell-Based Xenograft (START-CBX) tumor model. H69 cells are human small cell lung cancer cells and are Rb-negative.
Data collected from the efficacy study included animal weights, observations and tumor dimensions. This information was used to determine agent tolerability based on weight change and gross physiologic changes and anticancer activity based on tumor growth delay or regression. The designated endpoint for this study was an individual tumor volume of 1 cm^3 or 60 days following treatment initiation.
Tumor fragments from NCI-H69 were harvested from host animals and implanted into immune-deficient mice and the study initiated at a mean tumor volume of approximately 150-250 mm^3.
Additional details of the study are outlined in Table 6 below. […] Tumor size was examined twice per week and the endpoint for this study was Day 59.

[8] = Group 6: Compound T vehicle and topotecan 0.6 mg/kg IP qdx5x4

Sequence of CDK4/CyclinD1 (P11802 whole entry, species assumed): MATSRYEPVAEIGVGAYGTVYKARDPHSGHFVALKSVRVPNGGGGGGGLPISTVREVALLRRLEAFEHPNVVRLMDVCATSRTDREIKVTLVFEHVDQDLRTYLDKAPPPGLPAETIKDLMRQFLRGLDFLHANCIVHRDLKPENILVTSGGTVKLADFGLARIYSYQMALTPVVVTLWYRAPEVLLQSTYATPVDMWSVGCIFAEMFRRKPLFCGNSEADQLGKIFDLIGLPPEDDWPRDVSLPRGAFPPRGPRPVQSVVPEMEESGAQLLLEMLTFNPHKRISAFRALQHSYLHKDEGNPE
Sequence of CDK4/CyclinD1 (P24385 whole entry partner, species assumed): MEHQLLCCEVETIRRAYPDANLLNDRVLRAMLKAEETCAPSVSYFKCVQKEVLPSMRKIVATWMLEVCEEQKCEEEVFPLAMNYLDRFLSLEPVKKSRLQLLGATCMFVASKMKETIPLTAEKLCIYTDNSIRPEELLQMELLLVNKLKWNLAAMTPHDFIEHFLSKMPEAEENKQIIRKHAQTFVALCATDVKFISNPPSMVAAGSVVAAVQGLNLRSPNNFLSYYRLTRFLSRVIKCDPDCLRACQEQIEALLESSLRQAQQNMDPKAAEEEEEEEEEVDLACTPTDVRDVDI

Compound | EC50 [1] [nM] | EC50 [2] [nM] | EC50 (HS68 cells) [nM] | IC50 (CDK4/CyclinD1) [nM] | EC50 [3] [nM] | EC50 [4] [nM] | other results
O=C1NCC2(CCCCC2)n2c1cc1cnc(Nc3ccc(N4CCC(N5CCOCC5)CC4)cn3)nc12 [Compound U] | 59 | > 3000 | 25 | – | 70 | > 3000 | AUC 0-inf (uM * h) i.v. [5]: 0.76 µM·h; AUC (uM * h) p.o. [5]: 3.3 µM·h; Cmax [5]: 4.2 µM; Tmax (h) p.o. [5]: 0.5 h; t1/2 (h) p.o. ([5]; 30 mg/kg): 3 h
CC(C)C1CN(c2ccc(Nc3ncc4cc5n(c4n3)C3(CCCCC3)CNC5=O)nc2)CCN1 (centres unmarked) [E] | 62 | 2580 | 75 | 1 | 53 | 1370 | –
CC1(C)CN(c2ccc(Nc3ncc4cc5n(c4n3)C3(CCCCC3)CNC5=O)nc2)CCN1CC1CC1 [H] | 120 | 2040 | 85 | 1.5 | 85 | 1310 | –
C[C@@H]1CN(c2ccc(Nc3ncc4cc5n(c4n3)C3(CCCCC3)CNC5=O)nc2)CCN1C[C@@H](C)O [J] | 82 | > 3000 | 110 | – | 70 | > 3000 | –
CCOCCN1CCN(c2ccc(Nc3ncc4cc5n(c4n3)C3(CCCC3)CNC5=O)nc2)CC1 [MMM] | 141 | > 3000 | 200 | – | 134 | > 3000 | –
C[C@@H]1CN(c2ccc(Nc3ncc4cc5n(c4n3)C3(CCCCC3)CNC5=O)nc2)C[C@H](C)N1C[C@@H](C)O [MM] | 77 | > 3000 | 100 | 1.8 | 73 | > 3000 | –
CC1CN(c2ccc(Nc3ncc4cc5n(c4n3)C3(CCCCC3)CNC5=O)nc2)CC(C)N1CC1CC1 (centres unmarked) [OO] | 229 | > 3000 | 95 | – | 120 | > 3000 | –
CC(=O)c1c(C)c2cnc(Nc3ccc(N4CCNCC4)cn3)nc2n(C2CCCC2)c1=O [PD0332991, palbociclib] | – | – | – | – | – | – | cytotoxic / chemosensitizing effect in combination with various camptothecin derivatives (in words) [6]: low chemosensitizing activity
CN(C)C1CCN(c2ccc(Nc3ncc4cc5n(c4n3)C3(CCCC3)CNC5=O)nc2)CC1 [YY] | 581 | – | 175 | 4.6 | 257 | – | –
Cn1cnc2c(NCc3ccccc3)nc(NCCO)nc21 [olomoucine] | – | – | – | – | – | – | cytotoxic effect in combination with topotecan (in words) [6]: synergistic cytotoxic effect; cytotoxic / chemosensitizing effect in combination with various camptothecin derivatives (in words) [6]: synergistic cytotoxic effect
CC[C@H](CO)Nc1nc(NCc2ccccc2)c2ncn(C(C)C)c2n1 [roscovitine] | – | – | – | – | – | – | cytotoxic effect in combination with topotecan (in words) [6]: synergistic cytotoxic effect; cytotoxic / chemosensitizing effect in combination with various camptothecin derivatives (in words) [6]: synergistic cytotoxic effect
CC[C@@]1(O)C(=O)OCc2c1cc1n(c2=O)Cc2cc3c(CN(C)C)c(O)ccc3nc2-1 [topotecan, reference compound] | – | – | – | – | – | – | activity toward NCI-H69 xenografts / tumor volume (in words) ([7]; Compound T alone 100 mg/kg, topotecan 0.6 mg/kg, combination with each Compound T dose (100, 50 or 10 mg/kg), FIG. 16): active and reduced tumor volumes; CR (tumor volume < 15 mm^3) [7, 8]: 0; LTS (individual tumor volume < volume endpoint at study time endpoint) [7, 8]: 1; MTTE ± SD (timepoint in days to reach designated tumor volume or time endpoint) [7, 8]: 52 ± 7 days; PR (%) (tumor volume ≥ 50% regression versus Day 0) [7, 8]: 0%; T-C (difference in days between MTTE of treatment and control groups) [7, 8]: 34 days; TFS (complete responder at study endpoint) [7, 8]: 0; survival versus vehicle or Compound T only (in words) ([7]; topotecan 0.6 mg/kg, with or without Compound T, FIG. 15): survived significantly longer than mice treated with vehicle or Compound T only

More lines, main results first:

EC50 [1] [nM] | EC50 [2] [nM] | EC50 (HS68 cells) [nM] | IC50 (CDK4/CyclinD1) [nM] | EC50 [3] [nM] | EC50 [4] [nM] | Compound | other results
47 | > 3000 | 70 | 0.5 | 47 | – | CC(C)N1CCN(c2ccc(Nc3ncc4cc5n(c4n3)C3(CCCCC3)CNC5=O)nc2)C[C@@H]1C [AA] | –
44 | > 3000 | 110 | 4.2 | 75 | – | C[C@H](O)CN1CCN(c2ccc(Nc3ncc4cc5n(c4n3)C3(CCCCC3)CNC5=O)nc2)CC1 [A] | –
38 | > 3000 | 90 | 1.6 | 50 | > 3000 | CCN(CC)C1CCN(c2ccc(Nc3ncc4cc5n(c4n3)C3(CCCCC3)CNC5=O)nc2)CC1 [CC] | –
35 | > 3000 | 100 | – | 49 | 2610 | O=C1NCC2(CCCCC2)n2c1cc1cnc(Nc3ccc(N4CCNCC4)cn3)nc12 [Compound Q] | AUC 0-inf (uM * h) i.v. [5]: 0.95 µM·h; AUC (uM * h) p.o. [5]: 0.15 µM·h; Cmax [5]: 0.16 µM; Tmax (h) p.o. [5]: 0.5 h; t1/2 (h) p.o. [5]: 0.8 h
46 | 2910 | 50 | 0.9 | 57 | 1670 | CN1CCN(c2ccc(Nc3ncc4cc5n(c4n3)C3(CCCCC3)CNC5=O)nc2)CC1(C)C [D] | –
33 | > 3000 | 40 | 2 | 94 | > 3000 | CC(C)N1CCN(C(=O)c2ccc(Nc3ncc4cc5n(c4n3)C3(CCCCC3)CNC5=O)nc2)CC1 [II] | –
40 | 2950 | 80 | 2 | 61 | 1060 | CC1(C)CN(c2ccc(Nc3ncc4cc5n(c4n3)C3(CCCCC3)CNC5=O)nc2)CCN1 [I] | –
24 | > 3000 | 25 | 1 | 28 | 1440 | O=C1NCC2(CCCCC2)n2c1cc1cnc(Nc3ccc(N4CCC(N5CCCCC5)CC4)cn3)nc12 [N] | –
29 | > 3000 | 40 | – | 56 | 2670 | CN(C)C1CCN(c2ccc(Nc3ncc4cc5n(c4n3)C3(CCCCC3)CNC5=O)nc2)CC1 [O] | –
43 | > 3000 | 30 | 3.3 | 60 | > 3000 | C[C@@H]1CN(c2ccc(Nc3ncc4cc5n(c4n3)C3(CCCCC3)CNC5=O)nc2)C[C@H](C)N1 [P] | –
50 | > 3000 | 70 | 0.5 | 36 | 2630 | C[C@H]1CN(c2ccc(Nc3ncc4cc5n(c4n3)C3(CCCCC3)CNC5=O)nc2)CCN1C [R] | –
53 | 2950 | 80 | 0.8 | 94 | 1660 | CN(C)C1CCN(c2ccc(Nc3ncc4cc5n(c4n3)C3(CCCCC3)CNC5=O)nn2)CC1 [SS] | –
29 | > 3000 | 70 | 2.9 | 50 | 1350 | C[C@@H]1CN(c2ccc(Nc3ncc4cc5n(c4n3)C3(CCCCC3)CNC5=O)nc2)CCN1 [V] | –
54 | – | 110 | 3.2 | 141 | – | C[C@H](O)CN1[C@H](C)CN(c2ccc(Nc3ncc4cc5n(c4n3)C3(CCCCC3)CNC5=O)nc2)C[C@@H]1C [Z] | –
